Test results from patent US8227428B2, “Anti-infammatory macrolide” (Glaxo Group Limited, priority 2009, dated 2012).

How the values were obtained:
[1] = In vitro stability in human whole blood; assay type: in vitro ADME; settings: 37° C., 2000 ng/mL, over 24 hours
Description: (§1) An in vitro stability study in human whole blood and plasma is carried out over 24 hours at 37° C. Drug-free freshly collected human blood (CPD—citrate-phosphate-dextrose is used for all blood collections as anticoagulant) and plasma are spiked with a previously prepared standard solution of test compound to a final concentration of 2000 ng/mL. For each compound blood and plasma are spiked in duplicate and incubated for 24 hours. Two separate aliquots of blood or plasma (50 μL) are sampled from each incubation mixture at 0, 15, 30, 60, 120, 240 and 1440 minutes. All aliquots are mixed with an equal volume of water (50 μL) and extracted with 300 μL of acetonitrile/methanol (2:1) containing internal standard (roxithromycin). The samples are then vortexed, centrifuged and analysed by LC/MS/MS (MRM mode). Results are expressed as the percentage of compound remaining, expressed as the ratio of analyte/internal standard.

[2] = In vitro stability in human plasma; assay type: in vitro ADME; settings: 37° C., 2000 ng/mL, over 24 hours
Description: as §1

[3] = Stability in buffer solutions pH 2 to pH 8 at 25° C.; assay type: physicochemical; settings: 25° C., during 24 hours
Description: (§2) Stability in buffer solutions pH 2 to pH 8 at 25° C., and in bio-relevant media (SGF pH 1.6, Fasted SIF pH 6.5 and Fed SIF pH 5.0) at 37° C., during 24 hours is monitored. The samples are analysed by LC/MS.
Buffer Solutions and Physiologically Relevant Media Used in Stability Assay:
LC Conditions: Instrument HP1100
Column: Waters XBridge C18, 2.1×50 mm, 3.5 μm
Guard column: Waters XBridge C18, 2.1×10 mm, 3.5 μm
• A) 0.1% HCOOH/H2O • B) 0.1% HCOOH/CH3CN Gradient Timetable: […]
(§3) Flow: 0.3 mL/min Column temp.: 25° C. Sample temp.: 25° C. (for stability assay in buffer solutions) • 37° C. (for stability assay in bio-relevant media) Injector volume: 3 μL (without injection program) MS Conditions: Instrument HP MS API-ES, positive ion mode Mass Range: 150-1500 Fragmentor: 100 Gain: 1.0 Treshold: 150 Step size: 0.20 Gas Temperature: 350° C. Drying Gas Flow: 13 L/min Nebulizer Pressure: 35 psig Capillary Voltage Positive 4000 V • Negative 4000 V Sample Preparation: a) For Stability Assay in Buffer Solutions
Compounds are dissolved in CH3CN to produce a 1 mg/mL stock solution. The stock solution is diluted to a concentration of 0.2 mg/mL (1 mL solution in 4 mL buffer) with appropriate buffer to produce a working solution.
Each solution at each pH is then dispatched into vials that are sealed and stored at room temperature in order to be analyzed at the proper time point. Before analysis, pH values of prepared sample solutions are checked and adjusted if neccessary.

[4] = Stability in bio-relevant media (SGF, Fasted SIF, Fed SIF) at 37° C.; assay type: physicochemical; settings: SGF pH 1.6, Fasted SIF pH 6.5, Fed SIF pH 5.0, 37° C., during 24 hours
Description: as §2
SGF (Simulated Gastric Fluid) pH 1.6
Fasted SIF (Simulated Intestinal Fluid) pH 6.5
Fed SIF (Simulated Intestinal Fluid) pH 5.0
as §3
b) For Stability Assay in Bio-Relevat Media
b1) For SGF Media pH 1.6 Testing:
Compounds are dissolved in SGF media pH 1.6 to give 0.2 mg/mL solution in case of compounds 1 and 2, and to give 0.1 mg/mL solution in case of compound 3. Solutions are then stored in a water bath at 37° C. and removed at the proper time point for LC/MS analysis. Before analysis, pH values of prepared sample solutions are checked and adjusted if necessary.
b2) For Fasted SIF Media pH 6.5 Testing:
(§4) Compounds are dissolved in Fasted SIF media pH 6.5 to give 2 mg/mL solution. Solutions are then dispatched into vials that are stored in a water bath at 37° C. and removed at the proper time point and diluted 10 times with CH3CN for LC/MS analysis. Before analysis, pH values of prepared sample solutions are checked and adjusted if necessary.
b3) For Fed SIF Media pH 5.0 Testing:
as §4, with “Fed” for “Fasted”, “5.0” for “6.5”, “40” for “10”

[5] = tested on: Escherichia coli ATCC25922; test: Anti-bacterial screening, broth microdilution MIC; assay type: cell-based; settings: read-out: minimal inhibitory concentration (MIC)
Description: (§5) Whole-cell antimicrobial activity of compounds against clinically relevant bacteria (Staphylococcus aureus ATCC13709, Streptococcus pneumoniae ATCC49619, Streptococcus pyogenes ATCC700294, Moraxella catarrhalis ATCC23246, Haemophilus influenzae ATCC49247 and Escherichia coli ATCC25922) is determined by broth microdilution using the Clinical and Laboratory Standards (CLSI) recommended procedure (Document M7-[…], Methods for Dilution Susceptibility Tests for Bacteria that Grow Aerobically). Compounds are dissolved in DMSO to produce a 50 mM stock solution. The stock solution is diluted to a concentration of 128 μg/mL in appropriate media (Haemophilus Test Medium for Haemophilus influenzae, Mueller-Hinton Broth for Staphylococcus aureus, Moraxella catarrhalis and Escherichia coli, and Mueller-Hinton Broth supplemented with 5% horse serum for Streptococcus pyogenes and Streptococcus pneumoniae) to produce a working solution. A Tecan Genesis 150 Workstation (Tecan Group Ltd. Mannedorf, Switzerland) is used to prepare serial two-fold dilutions (50 μL aliquots) of the working solution in a U-shape bottom 96 well microtitre plate. After the compounds are diluted, a 50 μL aliquot of the test isolate ( 1×10^6 cfu/ml) is added to each well of the microtitre plate. The final test concentrations range from 0.125-64 μg/mL. Inoculated plates are incubated at 35° C. in ambient air for 18 to 24 hours. The minimum inhibitory concentration (MIC) is determined as the lowest concentration of compound that inhibited visible growth.

[6] = tested on: Streptococcus pneumoniae ATCC49619; test: Anti-bacterial screening, broth microdilution MIC; assay type: cell-based; settings: read-out: minimal inhibitory concentration (MIC)
Description: as §5

[7] = tested on: Moraxella catarrhalis ATCC23246; test: Anti-bacterial screening, broth microdilution MIC; assay type: cell-based; settings: read-out: minimal inhibitory concentration (MIC)
Description: as §5

[8] = tested on: Haemophilus influenzae ATCC49247; test: Anti-bacterial screening, broth microdilution MIC; assay type: cell-based; settings: read-out: minimal inhibitory concentration (MIC)
Description: as §5

[9] = tested on: Staphylococcus aureus ATCC13709; test: Anti-bacterial screening, broth microdilution MIC; assay type: cell-based; settings: read-out: minimal inhibitory concentration (MIC)
Description: as §5

[10] = tested on: Streptococcus pyogenes ATCC700294; test: Anti-bacterial screening, broth microdilution MIC; assay type: cell-based; settings: read-out: minimal inhibitory concentration (MIC)
Description: as §5

[11] = tested on: Lung neutrophilia induced by bacterial lipopolysaccharide (LPS); test: Lung neutrophilia induced by bacterial lipopolysaccharide (LPS) in male BALB/cJ mice; assay type: in vivo; settings: average; single dose 200 mg/kg i.p.; vs LPS challenged untreated animals
Description: For intraperitoneal administration (i.p.) compounds are dissolved in a final concentration of 10 mg/mL. The required amount of compound is first dissolved in dimethylsulfoxide (DMSO, Sigma) and then diluted with 0.5% (w/v) methyl-cellulose so that the final DMSO concentration is 5% (v/v). The obtained solution is applied in a dose volume of 0.2 mL per 10 g of animal. Therefore, the compound dose is 200 mg/kg.
Male BALB/cJ mice (Charles River, France), with an average weight of ˜30 g are randomly grouped (n=8 in testing group, 10 in positive control and 8 in negative control). Mice receive intraperitoneally (i.p.) a single dose of 200 mg/kg of test compound. Two hours after administration, 2 μg of LPS (from Escherichia coli serotype 0111:B4, Sigma), dissolved in sterile PBS in a volume of 60 μL, is intranasally administered to all experimental groups except the negative control group, which receive the same volume of vehicle (PBS). Animals are sacrificed approximately 24 hours after application of LPS in order to obtain bronchioalveolar lavage fluid (BALF), which is used to determine absolute number of cells and the percentage of neutrophils. Results are expressed as percentage decrease in total cell number and number of neutrophils in BALF of treated animals compared to positive control (LPS challenged, but untreated animals).

With `CC[C@H]1OC(=O)[C@H](C)[C@@H](O[C@H]2C[C@@](C)(OC)[C@@H](OC(=O)CN(CC)CC)[C@H](C)O2)[C@H](C)[C@@H](O[C@@H]2O[C@H](C)C[C@H](NC)[C@H]2O)[C@](C)(OC)C[C@@H](C)C(=O)N[C@H](C)[C@@H](O)[C@]1(C)O` [Example 1, 3′-N-Demethyl-4″-O-(2-diethylaminoethanoyl)-6-O-methyl-9a-aza-9a-homoerythromycin A] the “stability in whole blood” value [1] was “stable”, the stability in plasma [2] was “stable” and the “stability in buffers pH 2 to 8” value [3] was “showed stability”. For the same compound, the “stability in all three bio relevant media” value [4] was “Examples 1 and 3 showed stability in all three bio relevant media”, the MIC [5] was > 64 µg/mL and the MIC [6] was > 64 µg/mL. The MIC [7] was > 64 µg/mL, the MIC [8] was > 64 µg/mL and the MIC [9] was > 64 µg/mL. The MIC [10] was > 64 µg/mL and the “inhibition of the number of neutrophils in BALF” value [11] was “more than 89%”.
